Measured values: ChEMBL document CHEMBL1138883, “Synthesis and biological evaluation of new asymmetrical bisintercalators as potential antitumor drugs” (2006)
Activity calls are given as the source filed them. The rule behind the calls is not given here.

Key:
[1] = Ratio of K(app) for [A-T] to [G-C]
[2] = test system: PC-3; assay: Cytotoxicity against PC3 cells by SRB assay after 48 hrs; format: functional; conditions: Homo sapiens, PC-3, 48 h
[3] = test system: PC-3; assay: Reduction in PC3 cell viability after 48 hrs by FDA flow cytometer assay; format: functional, cell-based; conditions: Homo sapiens
[4] = test system: PC-3; assay: Induction of necrosis in PC3 cells by DNA fragmentation assay; format: functional, cell-based; conditions: Homo sapiens
[5] = test system: PC-3; assay: Induction of apoptosis in PC3 cells by DNA fragmentation assay; format: functional, cell-based; conditions: Homo sapiens
[6] = test system: PC-3; assay: Induction of apoptosis in PC3 cells measured as percentage of living cells by biparametric PI/Annexin V assay at 3.6 uM after 4 hrs; format: functional, Homo sapiens
[7] = test system: PC-3; assay: Induction of apoptosis in PC3 cells measured as percentage of living cells by biparametric PI/Annexin V assay at 3.6 uM after 8 hrs; format: functional, Homo sapiens
[8] = test system: PC-3; assay: Induction of apoptosis in PC3 cells measured as percentage of living cells by biparametric PI/Annexin V assay at 3.6 uM after 24 hrs; format: functional, Homo sapiens
[9] = test system: PC-3; assay: Induction of apoptosis in PC3 cells measured as percentage of living cells by biparametric PI/Annexin V assay at 3.6 uM after 48 hrs; format: functional, Homo sapiens
[10] = test system: PC-3; assay: Induction of apoptosis in PC3 measured as percentage of necrotic cells by biparametric PI/Annexin V assay at 3.6 uM after 4 hrs; format: functional, Homo sapiens
[11] = test system: PC-3; assay: Induction of apoptosis in PC3 measured as percentage of necrotic cells by biparametric PI/Annexin V assay at 3.6 uM after 8 hrs; format: functional, Homo sapiens
[12] = test system: PC-3; assay: Induction of apoptosis in PC3 measured as percentage of necrotic cells by biparametric PI/Annexin V assay at 3.6 uM after 24 hrs; format: functional, Homo sapiens
[13] = test system: PC-3; assay: Induction of apoptosis in PC3 measured as percentage of necrotic cells by biparametric PI/Annexin V assay at 3.6 uM after 48 hrs; format: functional, Homo sapiens
[14] = test system: PC-3; assay: Induction of apoptosis in PC3 measured as percentage of early apoptotic cells by biparametric PI/Annexin V assay at 3.6 uM after 4 hrs; format: functional, Homo sapiens
[15] = test system: PC-3; assay: Induction of apoptosis in PC3 measured as percentage of early apoptotic cells by biparametric PI/Annexin V assay at 3.6 uM after 8 hrs; format: functional, Homo sapiens
[16] = test system: PC-3; assay: Induction of apoptosis in PC3 measured as percentage of early apoptotic cells by biparametric PI/Annexin V assay at 3.6 uM after 24 hrs; format: functional, Homo sapiens
[17] = test system: PC-3; assay: Induction of apoptosis in PC3 measured as percentage of early apoptotic cells by biparametric PI/Annexin V assay at 3.6 uM after 48 hrs; format: functional, Homo sapiens
[18] = test system: PC-3; assay: Induction of apoptosis in PC3 measured as percentage of late apoptotic cells by biparametric PI/Annexin V assay at 3.6 uM after 4 hrs; format: functional, Homo sapiens
[19] = test system: PC-3; assay: Induction of apoptosis in PC3 measured as percentage of late apoptotic cells by biparametric PI/Annexin V assay at 3.6 uM after 8 hrs; format: functional, Homo sapiens
[20] = test system: PC-3; assay: Induction of apoptosis in PC3 measured as percentage of late apoptotic cells by biparametric PI/Annexin V assay at 3.6 uM after 24 hrs; format: functional, Homo sapiens
[21] = test system: PC-3; assay: Induction of apoptosis in PC3 measured as percentage of late apoptotic cells by biparametric PI/Annexin V assay at 3.6 uM after 48 hrs; format: functional, Homo sapiens
[22] = test system: PC-3; assay: Induction of apoptosis in PC3 measured as percentage of early apoptotic cells by biparametric PI/Annexin V assay at 5.1 uM after 8 hrs; format: functional, Homo sapiens
[23] = test system: PC-3; assay: Induction of apoptosis in PC3 measured as percentage of early apoptotic cells by biparametric PI/Annexin V assay at 5.1 uM after 24 hrs; format: functional, Homo sapiens
[24] = test system: PC-3; assay: Induction of apoptosis in PC3 measured as percentage of early apoptotic cells by biparametric PI/Annexin V assay at 5.1 uM after 48 hrs; format: functional, Homo sapiens
[25] = test system: PC-3; assay: Induction of apoptosis in PC3 measured as percentage of late apoptotic cells by biparametric PI/Annexin V assay at 5.1 uM after 4 hrs; format: functional, Homo sapiens
[26] = test system: PC-3; assay: Induction of apoptosis in PC3 measured as percentage of late apoptotic cells by biparametric PI/Annexin V assay at 5.1 uM after 8 hrs; format: functional, Homo sapiens
[27] = test system: PC-3; assay: Induction of apoptosis in PC3 measured as percentage of late apoptotic cells by biparametric PI/Annexin V assay at 5.1 uM after 24 hrs; format: functional, Homo sapiens
[28] = test system: PC-3; assay: Induction of apoptosis in PC3 measured as percentage of late apoptotic cells by biparametric PI/Annexin V assay at 5.1 uM after 48 hrs; format: functional, Homo sapiens
[29] = test system: PC-3; assay: Induction of apoptosis in PC3 cells measured as percentage of living cells by biparametric PI/Annexin V assay at 5.1 uM after 4 hrs; format: functional, Homo sapiens
[30] = test system: PC-3; assay: Induction of apoptosis in PC3 cells measured as percentage of living cells by biparametric PI/Annexin V assay at 5.1 uM after 8 hrs; format: functional, Homo sapiens
[31] = test system: PC-3; assay: Induction of apoptosis in PC3 cells measured as percentage of living cells by biparametric PI/Annexin V assay at 5.1 uM after 24 hrs; format: functional, Homo sapiens
[32] = test system: PC-3; assay: Induction of apoptosis in PC3 cells measured as percentage of living cells by biparametric PI/Annexin V assay at 5.1 uM after 48 hrs; format: functional, Homo sapiens
[33] = test system: PC-3; assay: Induction of apoptosis in PC3 measured as percentage of necrotic cells by biparametric PI/Annexin V assay at 5.1 uM after 4 hrs; format: functional, Homo sapiens
[34] = test system: PC-3; assay: Induction of apoptosis in PC3 measured as percentage of necrotic cells by biparametric PI/Annexin V assay at 5.1 uM after 8 hrs; format: functional, Homo sapiens
[35] = test system: PC-3; assay: Induction of apoptosis in PC3 measured as percentage of necrotic cells by biparametric PI/Annexin V assay at 5.1 uM after 24 hrs; format: functional, Homo sapiens
[36] = test system: PC-3; assay: Induction of apoptosis in PC3 measured as percentage of necrotic cells by biparametric PI/Annexin V assay at 5.1 uM after 48 hrs; format: functional, Homo sapiens
[37] = test system: PC-3; assay: Induction of apoptosis in PC3 measured as percentage of early apoptotic cells by biparametric PI/Annexin V assay at 5.1 uM after 4 hrs; format: functional, Homo sapiens

COc1ccc2nc3c(C(=O)NCCN(C)C)ccc(NCCCN(C)CCCN4C(=O)c5cccc6cccc(c56)C4=O)c3c(O)c2c1.Cl
Selectivity ratio [1]: 30
GI50 [2]: 0.16 nM
LC50 (concentration for 50% net cell kill) [2]: 3600 nM
TGI [2]: 14 nM
Activity [3]: Time-dependent effect
Activity [4]: Active
Activity [5]: Active
Activity [6]: 81.1%
Activity [7]: 62.7%
Activity [8]: 35.5%
Activity [9]: 2.3%
Activity [10]: 16.4%
Activity [11]: 32.9%
Activity [12]: 22.3%
Activity [13]: 24.4%
Activity [14]: 1.3%
Activity [15]: 1.5%
Activity [16]: 25.9%
Activity [17]: 59%
Activity [18]: 1.2%
Activity [19]: 2.9%
Activity [20]: 16.3%
Activity [21]: 14.3%

Cc1ccc2c(c1)c(=O)c1c(NCCCN(C)CCCN3C(=O)c4cccc5cccc(c45)C3=O)ccc3nnn2c31.Cl
Selectivity ratio [1]: 1.7
GI50 [2]: 17 nM
LC50 (concentration for 50% net cell kill) [2]: 5100 nM
TGI [2]: 1600 nM
Activity [3]: Time-dependent effect
Activity [5]: Active
Activity [22]: 1.3%
Activity [23]: 39%
Activity [24]: 57%
Activity [25]: 1.1%
Activity [26]: 1.9%
Activity [27]: 16.1%
Activity [28]: 15.7%
Activity [29]: 69.4%
Activity [30]: 54.8%
Activity [31]: 11.9%
Activity [32]: 1%
Activity [33]: 28.6%
Activity [34]: 42%
Activity [35]: 33%
Activity [36]: 27.3%
Activity [37]: 0.9%
